What was measured:
Format in all cases: physicochemical
[1] = Solubility of glycerol-containing formulations (post vortexing, 30 min and overnight at 18° C.); conditions: glycerol-containing formulation, compound 2 mg/mL; for solubility at 30 min / solubility: 18 °C; for solubility at 30 min: after 30 minutes incubation at 18° C.; for solubility: overnight incubation at 18° C.; for solubility at 30 s: post vortexing
Procedure: Tables 3A, 3B, and 3C describe solubility experiments conducted with the indicated compounds under the listed conditions. Vortexing was conducted using a Denville Vortexer 59 (Denville Scientific Inc.), at maximum speed for 30 seconds. As used herein, the term overnight refers to a period lasting at least about 12-24 hours.

[2] = Solubility of BSA-containing formulations (post vortexing, 30 min and overnight at 18° C.); conditions: BSA-containing formulation, aqueous with cosolvent or surfactant or cyclodextrin, compound 2 mg/mL; for solubility at 30 min / solubility: 18 °C; for solubility at 30 min: after 30 minutes incubation at 18° C.; for solubility: overnight incubation at 18° C.; for solubility at 30 s: post vortexing
Procedure: Vortexing was conducted using a Denville Vortexer 59 (Denville Scientific Inc.), at maximum speed for 30 seconds. As used herein, the term overnight refers to a period lasting at least about 12-24 hours.

[3] = Solubility of sodium deoxycholate-containing formulations (post vortexing, 30 min and overnight at 18° C.); conditions: compound 2 mg/mL; for solubility at 30 s: post vortexing
Procedure: Tables 5A, 5B, and 5C describe solubility experiments conducted with the indicated compounds under the listed conditions. Vortexing was conducted using a Denville Vortexer 59 (Denville Scientific Inc.), at maximum speed for 30 seconds. As used herein, the term overnight refers to a period lasting at least about 12-24 hours.

CCN1/C(=C/C=C/c2oc3ccccc3[n+]2CC)Oc2ccccc21 [JAC-R1, 3′,3′-Diethyloxacarbocyanine iodide]
< 2000 µg/mL: solubility at 30 min ([1]; aqueous with cosolvent or surfactant or cyclodextrin, 10% glycerol, read-out: Solubility of glycerol-containing formulations after 30 min incubation at 18° C., 10%) | solubility ([1]; aqueous with cosolvent or surfactant or cyclodextrin, 10% glycerol, read-out: Solubility of glycerol-containing formulations after overnight incubation at 18° C., 10%) | solubility at 30 min ([1]; aqueous with cosolvent or surfactant or cyclodextrin, 20% glycerol, read-out: Solubility of glycerol-containing formulations after 30 min incubation at 18° C., 20%) | solubility ([1]; aqueous with cosolvent or surfactant or cyclodextrin, 20% glycerol, read-out: Solubility of glycerol-containing formulations after overnight incubation at 18° C., 20%) | solubility at 30 min ([1]; aqueous with cosolvent or surfactant or cyclodextrin, 30% glycerol, read-out: Solubility of glycerol-containing formulations after 30 min incubation at 18° C., 30%) | solubility ([1]; aqueous with cosolvent or surfactant or cyclodextrin, 30% glycerol, read-out: Solubility of glycerol-containing formulations after overnight incubation at 18° C., 30%) | solubility at 30 min ([1]; aqueous with cosolvent or surfactant or cyclodextrin, 40% glycerol, read-out: Solubility of glycerol-containing formulations after 30 min incubation at 18° C., 40%) | solubility ([1]; aqueous with cosolvent or surfactant or cyclodextrin, 40% glycerol, read-out: Solubility of glycerol-containing formulations after overnight incubation at 18° C., 40%) | solubility at 30 min ([1]; aqueous with cosolvent or surfactant or cyclodextrin, 50% glycerol, read-out: Solubility of glycerol-containing formulations after 30 min incubation at 18° C., 50%) | solubility ([1]; aqueous with cosolvent or surfactant or cyclodextrin, 50% glycerol, read-out: Solubility of glycerol-containing formulations after overnight incubation at 18° C., 50%) | solubility at 30 min ([1]; 0% glycerol, read-out: Solubility of glycerol-containing formulations after 30 min incubation at 18° C., 0%) | solubility ([1]; 0% glycerol, read-out: Solubility of glycerol-containing formulations after overnight incubation at 18° C., 0%) | solubility at 30 s ([1]; aqueous with cosolvent or surfactant or cyclodextrin, 10% glycerol, read-out: Solubility of glycerol-containing formulations post vortexing, 10%) | solubility at 30 s ([1]; aqueous with cosolvent or surfactant or cyclodextrin, 20% glycerol, read-out: Solubility of glycerol-containing formulations post vortexing, 20%) | solubility at 30 s ([1]; aqueous with cosolvent or surfactant or cyclodextrin, 30% glycerol, read-out: Solubility of glycerol-containing formulations post vortexing, 30%) | solubility at 30 s ([1]; aqueous with cosolvent or surfactant or cyclodextrin, 40% glycerol, read-out: Solubility of glycerol-containing formulations post vortexing, 40%) | solubility at 30 s ([1]; aqueous with cosolvent or surfactant or cyclodextrin, 50% glycerol, read-out: Solubility of glycerol-containing formulations post vortexing, 50%) | solubility at 30 s ([1]; 0% glycerol, read-out: Solubility of glycerol-containing formulations post vortexing, 0%) | solubility at 30 min ([2]; BSA 40 mg/mL, read-out: Solubility of BSA-containing formulations after 30 min incubation at 18° C., 40 mg/mL) | solubility ([2]; BSA 40 mg/mL, read-out: Solubility of BSA-containing formulations after overnight incubation at 18° C., 40 mg/mL) | solubility at 30 min ([2]; BSA 60 mg/mL, read-out: Solubility of BSA-containing formulations after 30 min incubation at 18° C., 60 mg/mL) | solubility ([2]; BSA 60 mg/mL, read-out: Solubility of BSA-containing formulations after overnight incubation at 18° C., 60 mg/mL) | solubility at 30 min ([2]; BSA 80 mg/mL, read-out: Solubility of BSA-containing formulations after 30 min incubation at 18° C., 80 mg/mL) | solubility ([2]; BSA 80 mg/mL, read-out: Solubility of BSA-containing formulations after overnight incubation at 18° C., 80 mg/mL) | solubility at 30 min ([2]; BSA 100 mg/mL, read-out: Solubility of BSA-containing formulations after 30 min incubation at 18° C., 100 mg/mL) | solubility ([2]; BSA 100 mg/mL, read-out: Solubility of BSA-containing formulations after overnight incubation at 18° C., 100 mg/mL) | solubility at 30 s ([2]; BSA 40 mg/mL, read-out: Solubility of BSA-containing formulations post vortexing, 40 mg/mL) | solubility at 30 s ([2]; BSA 60 mg/mL, read-out: Solubility of BSA-containing formulations post vortexing, 60 mg/mL) | solubility at 30 s ([2]; BSA 80 mg/mL, read-out: Solubility of BSA-containing formulations post vortexing, 80 mg/mL) | solubility at 30 s ([2]; BSA 100 mg/mL, read-out: Solubility of BSA-containing formulations post vortexing, 100 mg/mL) | solubility at 30 s ([3]; sodium deoxycholate-containing formulation, aqueous with cosolvent or surfactant or cyclodextrin, sodium deoxycholate 12.5 mg/mL, read-out: Solubility of sodium deoxycholate-containing formulations post vortexing, 12.5 mg/mL) | solubility at 30 s ([3]; sodium deoxycholate-containing formulation, aqueous with cosolvent or surfactant or cyclodextrin, sodium deoxycholate 25 mg/mL, read-out: Solubility of sodium deoxycholate-containing formulations post vortexing, 25 mg/mL) | solubility at 30 s ([3]; sodium deoxycholate-containing formulation, aqueous with cosolvent or surfactant or cyclodextrin, sodium deoxycholate 50 mg/mL, read-out: Solubility of sodium deoxycholate-containing formulations post vortexing, 50 mg/mL) | solubility at 30 s ([3]; sodium deoxycholate-containing formulation, aqueous with cosolvent or surfactant or cyclodextrin, sodium deoxycholate 100 mg/mL, read-out: Solubility of sodium deoxycholate-containing formulations post vortexing, 100 mg/mL) | solubility at 30 min ([3]; sodium deoxycholate-containing formulation, aqueous with cosolvent or surfactant or cyclodextrin, sodium deoxycholate 12.5 mg/mL, after 30 minutes incubation at 18° C.)
MFG: Solubility of sodium deoxycholate-containing formulations after 30 min incubation at 18° C., 50 mg/mL ([3]; sodium deoxycholate 50 mg/mL, after 30 minutes incubation at 18° C.) | Solubility of sodium deoxycholate-containing formulations after 30 min incubation at 18° C., 100 mg/mL ([3]; sodium deoxycholate 100 mg/mL, after 30 minutes incubation at 18° C.)
> 2000 µg/mL: solubility ([3]; sodium deoxycholate-containing formulation, aqueous with cosolvent or surfactant or cyclodextrin, sodium deoxycholate 12.5 mg/mL, overnight incubation at 18° C., read-out: Solubility of sodium deoxycholate-containing formulations after overnight incubation at 18° C., 12.5 mg/mL)
